Several values for one entry are separate records, joined by “and”; a condition that tells them apart may be missing. Identical values can stand only once. Counter-ions that a name gives are not always drawn.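 A five-concentration, 48-hour dose response in 96-well plates underlies each endpoint, interpolated linearly between surrounding concentrations. GI50 marks 50% less growth.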 Activity calls are given as the source filed them. Cut-off read from the data, not from the text of the source: active = GI50 up to about 1.1 µM and inactive = higher.
Key:
Assay in all cases: NCI anticancer screen, dose series, 48 h
786-0 = test system: 786-0
CAKI-1 = test system: CAKI-1
DU-145 = test system: DU-145
EKVX = test system: EKVX
HCC 2998 = test system: HCC 2998
HCT-116 = test system: HCT-116
HT-29 = test system: HT-29
Hs-578T = test system: Hs-578T
KM12 = test system: KM12
OVCAR-3 = test system: OVCAR-3
OVCAR-5 = test system: OVCAR-5
PC-3 = test system: PC-3
RPMI-8226 = test system: RPMI-8226
SF-268 = test system: SF-268
SF-539 = test system: SF-539
SNB-19 = test system: SNB-19
SR = test system: SR
SW-620 = test system: SW-620
UACC-257 = test system: UACC-257
RXF 393 = test system: RXF 393

Measured: GI50

Oc1ccccc1-n1nc2ccc3nonc3c2n1
inactive: 786-0 > 100 µM | CAKI-1 > 100 µM | DU-145 > 100 µM | EKVX 48.1 µM | HCC 2998 40.9 µM | HCT-116 > 100 µM | HT-29 > 100 µM | Hs-578T > 100 µM | KM12 30.3 µM | OVCAR-3 > 100 µM | OVCAR-5 > 100 µM | PC-3 > 100 µM | RPMI-8226 > 100 µM | SF-268 > 100 µM | SF-539 > 100 µM | SNB-19 > 100 µM | SR > 100 µM | SW-620 > 100 µM | UACC-257 > 100 µM

O=C(O)c1ccc(CNCc2ccccc2)cc1
inactive: 786-0 > 100 µM | CAKI-1 > 100 µM | DU-145 > 100 µM | EKVX > 100 µM | HCT-116 > 100 µM | HT-29 > 100 µM | Hs-578T > 100 µM | KM12 > 100 µM | OVCAR-3 > 100 µM | OVCAR-5 > 100 µM | PC-3 > 100 µM | RPMI-8226 > 100 µM | RXF 393 > 100 µM | SF-268 > 100 µM | SF-539 > 100 µM | SNB-19 > 100 µM | SR > 100 µM | SW-620 > 100 µM | UACC-257 > 100 µM

O[C@@H]1C=C[C@]23CCN(Cc4cc5c(cc42)OCO5)[C@@H]3C1
inactive: 786-0 56.8 µM | CAKI-1 26.8 µM | DU-145 24.7 µM | EKVX 87.1 µM | HCT-116 42.8 µM | HT-29 51.5 µM | Hs-578T > 100 µM | KM12 52.5 µM | OVCAR-3 > 100 µM | OVCAR-5 > 100 µM | PC-3 45.2 µM | RPMI-8226 50.7 µM | RXF 393 20.8 µM | SF-268 > 100 µM | SF-539 > 100 µM | SNB-19 43.1 µM | SR 67.8 µM | SW-620 49 µM | UACC-257 92 µM

Cc1cc(C)c(C2=NOC(c3ccccc3)(c3cc(=O)n(-c4ccccc4)s3)O2)c(C)c1 (stereo not given)
inactive: 786-0 19 µM | CAKI-1 17.2 µM | DU-145 32.1 µM | EKVX 21.9 µM | HCC 2998 32.5 µM | HCT-116 > 100 µM | HT-29 18.8 µM | Hs-578T 52.6 µM | KM12 37 µM | OVCAR-5 18 µM | PC-3 30.9 µM | RPMI-8226 37 µM | RXF 393 17.3 µM | SF-268 44.2 µM | SNB-19 50.6 µM | SR 89.7 µM | SW-620 26.4 µM | UACC-257 38.9 µM

Cc1ccc(-n2cc(-c3ccc(Cl)cc3)c(C#N)c2N)cc1
inactive: 786-0 15.3 µM | CAKI-1 21.2 µM | DU-145 25.2 µM | EKVX 15.2 µM | HCC 2998 14.9 µM | HCT-116 14 µM | HT-29 14 µM | Hs-578T 2.38 µM | OVCAR-3 15.6 µM | OVCAR-5 15.1 µM | PC-3 12.6 µM | RXF 393 10.5 µM | SF-268 18.7 µM | SF-539 16.6 µM | SNB-19 17.3 µM | SR 6.67 µM | SW-620 13.2 µM | UACC-257 14.8 µM

O=C1C[S+]([O-])C23c4cc5ccccc5n4CCC2CCCN13 (stereo not given)
inactive: 786-0 > 100 µM | CAKI-1 > 100 µM | DU-145 > 100 µM | EKVX > 100 µM | HCT-116 > 100 µM | HT-29 > 100 µM | Hs-578T > 100 µM | KM12 > 100 µM | OVCAR-3 > 100 µM | OVCAR-5 > 100 µM | PC-3 > 100 µM | RPMI-8226 > 100 µM | RXF 393 > 100 µM | SF-268 > 100 µM | SF-539 > 100 µM | SNB-19 > 100 µM | SR > 100 µM | SW-620 > 100 µM | UACC-257 > 100 µM

Cc1cc(C)c(N)c(CO)c1
inactive: 786-0 > 100 µM | CAKI-1 4.25 µM and 2.87 µM | DU-145 > 100 µM | EKVX > 100 µM and 81.1 µM | HCC 2998 74.5 µM and 71.1 µM | HCT-116 35.6 µM and 19.3 µM | Hs-578T > 100 µM | KM12 > 100 µM | OVCAR-3 32.7 µM and 24.4 µM | PC-3 > 100 µM | RPMI-8226 > 100 µM | SF-268 > 100 µM | SF-539 > 100 µM | SNB-19 > 100 µM | SR > 100 µM | SW-620 > 88.3 µM and 95.3 µM | UACC-257 45.3 µM and 58.5 µM

CCNCC(O)COc1ccc2c(c1)[n+]([O-])nc(N)[n+]2[O-] (stereo not given)
inactive: 786-0 51.6 µM | CAKI-1 26.9 µM | DU-145 71.3 µM | EKVX > 100 µM | HCT-116 50.2 µM | HT-29 68.9 µM | Hs-578T 54.6 µM | KM12 59.3 µM | OVCAR-3 > 100 µM | OVCAR-5 > 100 µM | PC-3 24.7 µM | RPMI-8226 61.9 µM | SF-268 31.3 µM | SF-539 37.3 µM | SNB-19 61.2 µM | SR 45.5 µM | SW-620 32.7 µM | UACC-257 > 100 µM

COc1cnc2cc(C(=O)O)c3c([N+](=O)[O-])cccc3c2c1
inactive: 786-0 > 100 µM | CAKI-1 > 100 µM | DU-145 > 100 µM | EKVX > 100 µM | HCC 2998 > 100 µM | HCT-116 > 100 µM | HT-29 > 100 µM | Hs-578T > 100 µM | KM12 > 100 µM | OVCAR-3 > 100 µM | OVCAR-5 > 100 µM | PC-3 > 100 µM | RPMI-8226 > 100 µM | RXF 393 > 100 µM | SF-268 > 100 µM | SNB-19 > 100 µM | SR > 100 µM | SW-620 > 100 µM | UACC-257 > 100 µM

CC1=NC(=Cc2ccc(O)cc2)C(=O)N1n1c(-c2ccccc2)nc2ccccc2c1=O
inactive: 786-0 > 100 µM | CAKI-1 > 100 µM | DU-145 > 100 µM | EKVX > 100 µM | HCC 2998 > 100 µM | HCT-116 > 100 µM | HT-29 > 100 µM | Hs-578T > 100 µM | KM12 > 100 µM | PC-3 > 100 µM | RPMI-8226 > 100 µM | SF-268 > 100 µM | SF-539 > 100 µM | SNB-19 > 100 µM | SR > 100 µM | SW-620 > 100 µM | UACC-257 > 100 µM

CC(C)[Si](OC1=CCC[C@H]2NC(=O)[C@@H](Cc3ccc([N+](=O)[O-])cc3)[C@@]12C)(C(C)C)C(C)C
inactive: 786-0 5.11 µM | CAKI-1 13.2 µM | DU-145 9.46 µM | EKVX 6.37 µM | HCC 2998 1.95 µM | HCT-116 3.68 µM | HT-29 2.12 µM | Hs-578T 7.31 µM | KM12 3.73 µM | OVCAR-3 4.34 µM | OVCAR-5 8.65 µM | PC-3 3.4 µM | RXF 393 2.15 µM | SF-268 7.52 µM | SF-539 2.42 µM | SNB-19 12.5 µM | SR 2.79 µM | UACC-257 5.47 µM

CN(C)C(Cc1c[nH]cn1)C(=O)N1CCCC1C(N)=O (stereo not given)
inactive: 786-0 > 100 µM | CAKI-1 > 100 µM | DU-145 > 100 µM | EKVX > 100 µM | HCC 2998 > 100 µM | HCT-116 > 100 µM | HT-29 > 100 µM | Hs-578T > 100 µM | KM12 > 100 µM | OVCAR-3 > 100 µM | OVCAR-5 > 100 µM | PC-3 > 100 µM | RPMI-8226 > 100 µM | RXF 393 > 100 µM | SF-268 > 100 µM | SNB-19 > 100 µM | SR > 100 µM | SW-620 > 100 µM

Cc1ccc(/N=N/c2cc(=O)[nH]c(=O)[nH]2)cc1C
inactive: 786-0 2.82 µM | DU-145 14.7 µM | EKVX 17.9 µM | HCC 2998 5.01 µM | HCT-116 5.58 µM | HT-29 1.97 µM | Hs-578T > 10 µM | KM12 12.1 µM | OVCAR-3 1.94 µM | OVCAR-5 15.4 µM | PC-3 2.71 µM | RPMI-8226 3.01 µM | RXF 393 5.04 µM | SF-268 19.8 µM | SF-539 11.2 µM | SNB-19 17.2 µM | SR 3.6 µM | SW-620 4.03 µM | UACC-257 13.7 µM

CC(C)CCC[C@@H](C)C1CCC2[C@@H]3CCC4C[C@@H](NS(C)(=O)=O)CC[C@]4(C)C3CC[C@@]21C (stereo not given in full)
inactive: 786-0 > 100 µM | CAKI-1 > 100 µM | DU-145 > 100 µM | EKVX > 100 µM | HCT-116 > 100 µM | HT-29 > 100 µM | Hs-578T > 100 µM | KM12 > 100 µM | OVCAR-3 > 100 µM | PC-3 > 100 µM | RPMI-8226 > 100 µM | RXF 393 > 100 µM | SF-268 > 100 µM | SF-539 > 100 µM | SNB-19 > 100 µM | SR > 100 µM | SW-620 > 100 µM | UACC-257 > 100 µM

NCCS [CYSTEAMINE HYDROCHLORIDE]
inactive: 786-0 > 100 µM | CAKI-1 > 100 µM | DU-145 > 100 µM | EKVX > 100 µM | HCC 2998 > 100 µM | HCT-116 > 100 µM | HT-29 > 100 µM | Hs-578T > 100 µM | KM12 > 100 µM | OVCAR-3 > 100 µM | OVCAR-5 > 100 µM | PC-3 > 100 µM | RPMI-8226 > 100 µM | SF-268 > 100 µM | SF-539 45.8 µM | SNB-19 > 100 µM | SR > 100 µM | SW-620 > 100 µM | UACC-257 > 100 µM

Source: ChEMBL document CHEMBL1201862, “PubChem BioAssay data set” (2004)
